Measurements published in patent US8569578B1, “Generating transgenic potatoes with novel resistance to potato cyst nematodes by silencing nematode parasitism genes of CLE -1 and CLE-4s” (The United States of America, as represented by the …, priority 2009, dated 2013).
“Also recorded” adds a separate entry of the source.

What was measured:
Type in all cases: in vivo
[1] = system: potato roots; test: in vitro root assay with synthetic CLE peptides on potato roots; details: 10 μM peptide in assay medium, compared with no peptide or Ag-16p
From the text: (§1) Mounting evidence supports that the conserved CLE motif represents the major functional domain of plant CLE proteins. Gr-CLE genes encode four different 12-aa CLE motifs (FIG. 1A). To examine the functional sufficiency of these nematode CLE motifs, we conducted in vitro root assays (Fiers et al. 2005) using synthetic dodecapeptides (GrCLE1-1-12p, GrCLE4-1-12p, GrCLE4-2-12p, and GrCLE4-3-12p) corresponding to the four CLE motifs of Gr-CLE proteins. A 16-aa peptide (Ag-16p) (Fiers et al. 2005) corresponding to the C-terminus of AGAMOUS that has no similarity with plant CLE motifs and a 12-aa CLV3 peptide (CLV3-12p) were used as negative and positive controls, respectively. In addition, several peptides, including a mutated GrCLE1-1 dodecapeptide (GrCLE1-1m-12p, with a Gly-to-Ala conversion as in clv3-1 and clv3-5 mutants), a 14-aa GrCLE1-1 peptide (GrCLE1-1-14p, with one additional N-terminal and one additional C-terminal residue compared to Gr-CLE1-1-12p), and three 13-aa peptides of GrCLE4-1-13p, GrCLE4-2-13p, and GrCLE4-3-13p (all contained an extra N-terminal lysine residue compared to the corresponding dodecapeptides), were synthesized and used in the in vitro root assays.
(§2) Peptides with a purity of >70% were synthesized (Sigma-Aldrich Corp., St. Louis, Mo., U.S.A) and dissolved in filter-sterilized 50 mM sodium phosphate buffer. Three Gr-CLE-1 related peptides were synthesized: GrCLE1-1-12p (12 aa, RVIPGGPDPLHN; SEQ ID NO: 12), GrCLE1-1m-12p (12 aa, RVIPGAPDPLHN; SEQ ID NO: 13, with a G-to-A conversion at position 6), and GrCLE1-1-14p (14 aa, KRVIPGGPDPLHNR; SEQ ID NO: 14). Six Gr-CLE-4 related peptides were synthesized: GrCLE4-1-12p (12 aa, RVAGAGPDPIHH; SEQ ID NO: 15), GrCLE4-1-13p (13 aa, KRVAGAGPDPIHH; SEQ ID NO: 16), GrCLE4-2-12p (12 aa, RAVPAGPDPKHH; SEQ ID NO: 17), GrCLE4-2-13p (13 aa, KRAVPAGPDPKHH; SEQ ID NO: 18), GrCLE4-3-12p (12 aa, RGAPAGPDP IHH; SEQ ID NO: 19), and GrCLE4-3-13p (13 aa, KRGAPAGPDPIHH; SEQ ID NO: 20). Positive and negative control peptides included CLV3-12p (12 aa, RTVPSGPDPLHH; SEQ ID NO: 21) and Ag-16p (16 aa, APNNHHYSSAGRQDQT; SEQ ID NO: 22) (Fiers et al., 2005).
(§3) For peptide treatments, seeds of wild-type Arabidopsis (Columbia-0) and potato, nonhost and host of G. rostochiensis, respectively, were surface-sterilized and plated on square plates (8-12 seeds per plate) containing the assay medium (Fiers et al. 2005, supra) with 10 μM of each peptide. Assay plates were placed vertically in a growth chamber and cultured at 23° C. for 16 h of light and 8 h of dark. The root length was measured from the base of the hypocotyl to the tip of the primary root at several time points after plating. Two independent experiments were conducted.

[2] = system: Arabidopsis (Columbia-0) root apical meristem; test: microscopic examination of root apical meristem of peptide treated Arabidopsis roots; details: Arabidopsis primary roots 8 days after peptide treatment
From the text: To examine root meristems, primary root tips were excised from peptide treated Arabidopsis seedlings or from transgenic potato hairy roots and immediately mounted in water onto a glass slide. Roots were examined under an Olympus BX-50 microscope equipped with Nomarski optics and images were captured using a QImaging Retiga EXi digital CCD camera (QImaging, Surrey, BC, Canada). The root apical meristem (RAM) regions of individual primary roots that covered the distance from the position around the quiescent center to the position where elongated root cells immediately follow cytoplasm-dense meristematic cells were measured microscopically. The collected data were analyzed using the MetaMorph imaging analysis software (Universal Imaging Corporation, Downingtown, Pa., U.S.A.)

[3] = system: Arabidopsis (Columbia-0) roots; test: in vitro root assay with synthetic CLE peptides on Arabidopsis roots; details: 10 μM peptide in assay medium, compared with no peptide or Ag-16p
From the text: as §1, §2, §3

Sequence	suppression of root growth (length of main root) [1]	root meristem consumption (size of root apical meristem) [2]	suppression of root growth (length of main root) [3]	suppression of root growth (length of main root) ([3]; listed as GrCLE1-1)
RTVPSGPDPLHH (listed as Globodera rostochiensis) [CLV3-12p, 12-aa CLV3 peptide, positive control, reference compound]	severely suppressed root growth	showed a phenotype of root meristem consumption	severely suppressed root growth	–
RVIPGGPDPLHN (listed as Globodera rostochiensis) [GrCLE1-1-12p, synthetic 12 aa dodecapeptide of the GrCLE1-1 CLE motif]	suppressed root growth; also recorded: comparable level of suppression as CLV3-12p; also recorded: significantly shorter	more severe; also recorded: significantly less	suppressed root growth; also recorded: comparable level of suppression as CLV3-12p; also recorded: significantly shorter	higher degree of root suppression
